The results in this text go back to ChEMBL document CHEMBL3286306, “Himbacine-derived thrombin receptor antagonists: c7-spirocyclic analogues of vorapaxar” (ACS Med Chem Lett, 2014).

The target in data set [1] is T1, Proteinase-activated receptor 1 (Homo sapiens, UniProt P25116).
T1 sequence (P25116 whole entry): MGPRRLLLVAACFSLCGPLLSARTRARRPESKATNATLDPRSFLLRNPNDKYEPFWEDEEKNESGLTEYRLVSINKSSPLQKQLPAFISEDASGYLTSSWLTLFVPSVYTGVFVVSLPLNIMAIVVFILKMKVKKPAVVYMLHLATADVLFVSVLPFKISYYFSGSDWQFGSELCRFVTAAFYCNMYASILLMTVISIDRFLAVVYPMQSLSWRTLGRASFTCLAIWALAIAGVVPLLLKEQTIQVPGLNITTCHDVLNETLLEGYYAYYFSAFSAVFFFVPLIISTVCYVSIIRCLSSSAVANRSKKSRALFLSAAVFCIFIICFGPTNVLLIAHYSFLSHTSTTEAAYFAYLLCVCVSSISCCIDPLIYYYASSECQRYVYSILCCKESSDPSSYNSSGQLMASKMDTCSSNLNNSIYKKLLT
Description: Displacement of [3H]haTRAP from PAR-1 receptor in human platelet membranes after 1 hr by scintillation counting analysis. The format is cell membranes. On the technique in general: In a radioligand displacement assay an active substance lowers the binding of a labelled ligand.

Data set [2] in a line: AUC (0 to 6 hrs) in rat at 10 mg/kg, po. The format is ADME, organism-based. Set-up: time < 6 hr, dose 10 mg/kg, route oral. Conditions: plasma.

One may read the Ki as the dissociation constant of the complex between target and ligand, obtained from inhibition or displacement. A lower Ki goes with tighter binding. `C[C@H]1OC(=O)[C@@H]2C[C@@H]3C[C@@]4(CC[C@H]3[C@H](/C=C/c3ccc(-c5ccccc5F)cn3)[C@H]12)COC(=O)N4` came in with a Ki in data set [1] of 25 nM. In other words, the double-digit nanomolar range.

With `C[C@H]1OC(=O)[C@@H]2C[C@@H]3C[C@@]4(CC[C@H]3[C@H](/C=C/c3ccc(-c5cccc(F)c5)cn3)[C@H]12)COC(=O)N4`, affinity in data set [1] was put at a Ki of 28 nM.

`C[C@H]1OC(=O)[C@@H]2C[C@@H]3C[C@@]4(CC[C@H]3[C@H](/C=C/c3ccc(-c5cccc(C#N)c5)cn3)[C@H]12)COC(=O)N4` gave a Ki in data set [1] of 43 nM.

In general, AUC(0-t) refers to exposure summed from dosing to a finite time, without extrapolation to infinity. On to `C[C@H]1OC(=O)[C@@H]2C[C@@H]3C[C@]4(CC[C@H]3[C@H](/C=C/c3ccc(-c5cccc(F)c5)cn3)[C@H]12)COC(=O)N4`, for which the AUC(0-t) at 6 h in data set [2] came to 3240 ng·h/mL. Also, the Ki in data set [1] was 15.5 nM.

Take `C[C@H]1OC(=O)[C@@H]2C[C@@H]3C[C@]4(CC[C@H]3[C@H](/C=C/c3ccc(-c5cccc(C#N)c5)cn3)[C@H]12)COC(=O)N4`: in data set [1], the affinity corresponds to a Ki of 267 nM.

For `C[C@H]1OC(=O)[C@@H]2C[C@@H]3C[C@]4(CC[C@H]3[C@H](/C=C/c3ccc(-c5cccc(C(F)(F)F)c5)cn3)[C@H]12)CNC(=O)O4`, the affinity in data set [1] corresponds to a Ki of 392 nM.

`C[C@H]1OC(=O)[C@@H]2C[C@@H]3C[C@@]4(CC[C@H]3[C@H](/C=C/c3ccc(-c5ccccn5)cn3)[C@H]12)COC(=O)N4` had a Ki in data set [1] of 232 nM.

In data set [1], `C[C@H]1OC(=O)[C@@H]2C[C@@H]3C[C@@]4(CC[C@H]3[C@H](/C=C/c3ccc(-c5ccccc5C#N)cn3)[C@H]12)COC(=O)N4` gave an inhibitory constant (Ki) of 8.9 nM.

Regarding `C[C@H]1OC(=O)[C@@H]2C[C@@H]3C[C@@]4(CC[C@H]3[C@H](/C=C/c3ccc(-c5cccc(C(F)(F)F)c5)cn3)[C@H]12)COC(=O)N4`, the Ki in data set [1] is 26.5 nM.

In turn, `C[C@H]1OC(=O)[C@@H]2C[C@@H]3C[C@]4(CC[C@H]3[C@H](/C=C/c3ccc(-c5ccccc5C#N)cn3)[C@H]12)COC(=O)N4` gave a Ki in data set [1] of 5.1 nM.

For `C[C@H]1OC(=O)[C@@H]2C[C@@H]3C[C@@]4(CC[C@H]3[C@H](/C=C/c3ccc(-c5cccc(C(F)(F)F)c5)cn3)[C@H]12)CNC(=O)O4`, the AUC(0-t) at 6 h in data set [2] was 3200 ng·h/mL. The compound further showed a Ki in data set [1] of 31.5 nM.

Consider `C[C@H]1OC(=O)[C@@H]2C[C@@H]3C[C@]4(CC[C@H]3[C@H](/C=C/c3ccc(-c5cccc(C(F)(F)F)c5)cn3)[C@H]12)COC(=O)N4`, for which the AUC(0-t) at 6 h in data set [2] came out at 4920 ng·h/mL. For the same compound, the Ki in data set [1] worked out at 21 nM.
